Legend:
SMMC-7721 [1] = assay: Induction of apoptosis in human SMMC7721 cells assessed as increase in Bax levels after 24 hrs by Western blot method; format: functional, cell-based
SMMC-7721 [2] = assay: Cell cycle arrest in human SMMC7721 cells assessed as G2/M phase accumulation at half IC50 after 24 hrs by propidium iodide-staining based flow cytometry (reference value: 28.8 %); format: functional
SMMC-7721 [3] = assay: Induction of apoptosis in human SMMC7721 cells assessed as live cells at half IC50 after 24 hrs by annexin V/PI-staining based flow cytometry (reference value: 97.3 %); format: functional
SMMC-7721 [4] = assay: Induction of apoptosis in human SMMC7721 cells assessed as live cells at IC50 after 24 hrs by annexin V/PI-staining based flow cytometry (reference value: 97.3 %); format: functional
SMMC-7721 [5] = assay: Induction of apoptosis in human SMMC7721 cells assessed as increase in cleaved caspase 3 levels after 24 hrs by Western blot method; format: functional, cell-based
SMMC-7721 [6] = assay: Cell cycle arrest in human SMMC7721 cells assessed as G2/M phase accumulation at IC50 after 24 hrs by propidium iodide staining based flow cytometry (reference value: 28.8 %); format: functional
SMMC-7721 [7] = assay: Induction of apoptosis in human SMMC7721 cells assessed as early apoptotic cells at IC50 after 24 hrs by annexin V/PI-staining based flow cytometry (reference value: 0.6 %); format: functional
SMMC-7721 [8] = assay: Induction of apoptosis in human SMMC7721 cells assessed as increase in cleaved caspase 9 levels after 24 hrs by Western blot method; format: functional, cell-based
SMMC-7721 [9] = assay: Induction of apoptosis in human SMMC7721 cells assessed as early apoptotic cells at half IC50 after 24 hrs by annexin V/PI-staining based flow cytometry (reference value: 0.6 %); format: functional
SMMC-7721 [10] = assay: Induction of apoptosis in human SMMC7721 cells assessed as condensed nuclei after 24 hrs by Hoechst 33258 staining based fluorescent microscopic method; format: functional, cell-based
SMMC-7721 [11] = assay: Induction of apoptosis in human SMMC7721 cells after 24 hrs by annexin V/PI-staining based flow cytometry; format: functional, cell-based
SMMC-7721 [12] = assay: Induction of apoptosis in human SMMC7721 cells assessed as broken nuclei after 24 hrs by Hoechst 33258 staining based fluorescent microscopic method; format: functional, cell-based
SMMC-7721 [13] = assay: Cell cycle arrest in human SMMC7721 cells assessed as G1 phase accumulation at half IC50 after 24 hrs by propidium iodide-staining based flow cytometry (reference value: 57.6 %); format: functional
SMMC-7721 [14] = assay: Induction of apoptosis in human SMMC7721 cells assessed as necrotic cells at IC50 after 24 hrs by annexin V/PI-staining based flow cytometry (Rvb =1.6 %); format: functional
SMMC-7721 [15] = assay: Cell cycle arrest in human SMMC7721 cells assessed as sub-G1 phase accumulation at IC50 after 24 hrs by propidium iodide staining based flow cytometry (reference value: 0.8 %); format: functional
SMMC-7721 [16] = assay: Cell cycle arrest in human SMMC7721 cells assessed as S phase accumulation at IC50 after 24 hrs by propidium iodide staining based flow cytometry (reference value: 12.7 %); format: functional
SMMC-7721 [17] = assay: Induction of apoptosis in human SMMC7721 cells assessed as necrotic cells at half IC50 after 24 hrs by annexin V/PI-staining based flow cytometry (Rvb =1.6 %); format: functional
SMMC-7721 [18] = assay: Cell cycle arrest in human SMMC7721 cells assessed as G1 phase accumulation at IC50 after 24 hrs by propidium iodide staining based flow cytometry (reference value: 57.6 %); format: functional
SMMC-7721 [19] = assay: Induction of apoptosis in human SMMC7721 cells assessed as late apoptotic cells at half IC50 after 24 hrs by annexin V/PI-staining based flow cytometry (reference value: 0.5 %); format: functional
SMMC-7721 [20] = assay: Cell cycle arrest in human SMMC7721 cells assessed as S phase accumulation at half IC50 after 24 hrs by propidium iodide-staining based flow cytometry (reference value: 12.7 %); format: functional
SMMC-7721 [21] = assay: Induction of apoptosis in human SMMC7721 cells assessed as increase in cleaved caspase 8 levels after 24 hrs by Western blot method; format: functional, cell-based
SMMC-7721 [22] = assay: Induction of apoptosis in human SMMC7721 cells assessed as decrease in Bcl2 levels after 24 hrs by Western blot method; format: functional, cell-based
SMMC-7721 [23] = assay: Cytotoxicity against human SMMC7721 cells after 48 hrs by MTT assay; format: functional, cell-based; conditions: SMMC-7721, 48 h
SMMC-7721 [24] = assay: Cell cycle arrest in human SMMC7721 cells assessed as sub-G1 phase accumulation at half IC50 after 24 hrs by propidium iodide-staining based flow cytometry (reference value: 0.8 %); format: functional
SMMC-7721 [25] = assay: Induction of apoptosis in human SMMC7721 cells assessed as late apoptotic cells at IC50 after 24 hrs by annexin V/PI-staining based flow cytometry (reference value: 0.5 %); format: functional
H22 [26] = assay: Antitumor activity against mouse H22 cells implanted in Kunming mouse assessed as tumor growth inhibition at 15 mg/kg, po administered once daily for 7 days relative to control; format: functional; conditions: 168 h, read-out: TGI
H22 [27] = assay: Antitumor activity against mouse H22 cells implanted in Kunming mouse assessed as tumor weight at 15 mg/kg, po administered once daily for 7 days (reference value: 0.66 +/- 0.18 g); format: functional

SMILES | Activity (SMMC-7721 [2]) | Activity (SMMC-7721 [3]) | Activity (SMMC-7721 [4]) | Activity (SMMC-7721 [6]) | Activity (SMMC-7721 [7]) | Activity (SMMC-7721 [9]) | Activity (SMMC-7721 [10]) | Activity (SMMC-7721 [11]) | Activity (SMMC-7721 [12]) | Activity (SMMC-7721 [13]) | Activity (SMMC-7721 [14]) | Activity (SMMC-7721 [15]) | Activity (SMMC-7721 [16]) | Activity (SMMC-7721 [17]) | Activity (SMMC-7721 [18]) | Activity (SMMC-7721 [19]) | Activity (SMMC-7721 [20]) | IC50 (SMMC-7721 [23]) | Activity (SMMC-7721 [24]) | Activity (SMMC-7721 [25]) | other results
C=C1C[C@@]23CC[C@H]4[C@@](C)(CCC[C@@]4(C)C(=O)O)[C@@H]2CC[C@H]1C3 | 26.9% | 80.4% | 79.3% | 18% | 12.9% | 10.7% | Dose-dependent effect | Dose-dependent effect | Dose-dependent effect | 61% | 2.6% | 1.2% | 7.7% | 3.8% | 73.3% | 5.1% | 11.2% | 67.4 µM | 1% | 5.2% | Activity (SMMC-7721 [1]): Dose-dependent effect; Activity (SMMC-7721 [5]): Dose-dependent effect; Activity (SMMC-7721 [8]): Dose-dependent effect; Activity (SMMC-7721 [21]): Dose-dependent effect; Activity (SMMC-7721 [22]): Dose-dependent effect
O=c1[nH]cc(F)c(=O)[nH]1 [FLUOROURACIL] | – | – | – | – | – | – | – | – | – | – | – | – | – | – | – | – | – | – | – | – | inhibition in vivo at 15 mg/kg (H22 [26]): 44.7%; Activity (H22 [27]): 0.36 g
CC1=C[C@@]23CC[C@H]4[C@@](C)(CCC[C@@]4(C)C(=O)O)[C@@H]2CC[C@H]1C3 | 25.5% | 85.2% | 75.4% | 26.9% | 10.8% | 7.8% | Dose-dependent effect | Dose-dependent effect | Dose-dependent effect | 58.5% | 6.4% | 0.3% | 11% | 3.4% | 60.9% | 3.5% | 14.8% | 45.7 µM | 1.1% | 7.4% | –
